Tests used:
Assay type in all cases: cell-based
TYK2 [1] = target: T1, TYK2 (Homo sapiens, UniProt P29597); test: TYK2 degradation MSD assay in OCI-LY10 cells; parameters: endogenous in cells; host or cells: EBV-B cells; details: 4 to 24 hours incubation, read-out: TYK2 MSD DC50 rating in OCI-LY10
How it was run: (§1)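 Compound-driven TYK2 loss is measured with a Meso Scale Discovery sandwich assay on whole-cell lysates. Cells are incubated 4 to 24 hours at 37° C with nine 1:3-diluted doses topping at 1 to 10 μM, and DC50 values derive from four-parameter curve fitting.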

TYK2 [2] = target: T1, TYK2; test: TYK2 degradation MSD assay in human PBMC cells; parameters: endogenous in cells; host or cells: human PBMC; details: 4 to 24 hours incubation, read-out: TYK2 MSD DC50 rating in human PBMC
How it was run: as §1

TYK2 [3] = target: T1, TYK2; test: TYK2 degradation MSD assay in EBV-B cells; parameters: endogenous in cells; host or cells: EBV-B cells; details: 4 to 24 hours incubation, read-out: TYK2 MSD DC50 rating in EBV-B
How it was run: as §1

T1 sequence (P29597 whole entry): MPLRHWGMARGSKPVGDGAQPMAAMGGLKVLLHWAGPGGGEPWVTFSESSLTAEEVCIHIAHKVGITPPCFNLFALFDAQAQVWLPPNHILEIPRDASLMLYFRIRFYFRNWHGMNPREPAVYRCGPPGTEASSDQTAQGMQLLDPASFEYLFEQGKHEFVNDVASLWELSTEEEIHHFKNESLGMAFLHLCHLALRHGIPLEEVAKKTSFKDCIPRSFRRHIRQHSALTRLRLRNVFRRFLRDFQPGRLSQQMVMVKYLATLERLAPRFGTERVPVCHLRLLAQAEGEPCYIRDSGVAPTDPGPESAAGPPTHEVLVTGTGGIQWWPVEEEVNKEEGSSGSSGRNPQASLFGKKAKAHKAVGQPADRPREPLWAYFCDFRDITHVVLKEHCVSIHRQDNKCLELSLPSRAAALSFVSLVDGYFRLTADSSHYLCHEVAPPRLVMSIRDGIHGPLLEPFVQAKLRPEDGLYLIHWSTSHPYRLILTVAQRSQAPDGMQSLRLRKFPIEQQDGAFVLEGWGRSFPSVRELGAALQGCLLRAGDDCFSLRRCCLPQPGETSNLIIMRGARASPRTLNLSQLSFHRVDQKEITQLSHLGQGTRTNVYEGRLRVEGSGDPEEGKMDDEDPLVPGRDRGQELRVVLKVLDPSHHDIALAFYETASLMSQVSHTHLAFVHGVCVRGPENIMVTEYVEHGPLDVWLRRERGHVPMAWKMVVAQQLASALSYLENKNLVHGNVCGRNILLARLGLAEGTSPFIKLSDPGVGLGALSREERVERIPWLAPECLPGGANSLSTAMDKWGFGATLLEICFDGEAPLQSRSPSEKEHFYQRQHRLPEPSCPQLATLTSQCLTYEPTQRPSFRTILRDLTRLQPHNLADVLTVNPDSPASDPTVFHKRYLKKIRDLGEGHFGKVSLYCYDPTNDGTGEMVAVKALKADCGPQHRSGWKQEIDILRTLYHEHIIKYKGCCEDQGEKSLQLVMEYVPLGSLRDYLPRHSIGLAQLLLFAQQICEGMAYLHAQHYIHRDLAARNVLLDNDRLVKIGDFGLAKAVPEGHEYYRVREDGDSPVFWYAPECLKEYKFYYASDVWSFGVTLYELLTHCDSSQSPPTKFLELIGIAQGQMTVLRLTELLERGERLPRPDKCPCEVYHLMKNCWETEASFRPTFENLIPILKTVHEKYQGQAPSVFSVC

Structure (SMILES)	DC50 (TYK2 [1]) [nM]	DC50 (TYK2 [2]) [nM]	DC50 (TYK2 [3]) [nM]
CNc1cc(Nc2cccn(C3CCN(C(=O)NCCCCc4cccc5c4n(C)c(=O)n5C4CCC(=O)NC4=O)CC3)c2=O)nn2c(C(=O)N[C@@H]3C[C@@H]3F)cnc12 (stereo partly drawn) [Example K278]	> 100	1 to 10	> 100
CNc1cc(Nc2cccn(-c3ccc(C(=O)N4CC5(C4)CN(c4ccc(-c6ccc7c(c6)n(C)c(=O)n7C6CCC(=O)NC6=O)cc4)C5)cn3)c2=O)nn2c(C(=O)N[C@@H]3C[C@@H]3F)cnc12 (stereo partly drawn) [Example K372]	> 100	> 100	< 1
CNc1cc(Nc2cccn(-c3ccc(C(=O)N(C)CCCOCCCc4cccc5c4n(C)c(=O)n5C4CCC(=O)NC4=O)cn3)c2=O)nn2c(C(=O)N[C@@H]3C[C@@H]3F)cnc12 (stereo partly drawn) [Example K369]	> 100	1 to 10	> 100
CNc1cc(N2CCc3c(-c4ccc(CN5CCN(c6ccc(-c7cccc8c(N9CCC(=O)NC9=O)cncc78)cc6)CC5)cn4)cccc32)nn2c(C(=O)N[C@@H]3C[C@@H]3F)cnc12 (racemic) [Example K546]	> 100	> 100	> 100
CNC(=O)c1cnc(Nc2ccc(CN3CCC(CN4CCC(c5ccc6c(c5)n(C)c(=O)n6C5CCC(=O)NC5=O)CC4)CC3)cn2)cc1Nc1cccc(-c2ncc(F)cn2)c1OC (stereo not drawn) [Example K146]	> 100	< 1	< 1
CNc1cc(Nc2cccc(-c3ccc(CN4CC5(CCN(c6cccc7c6n(C)c(=O)n7C6CCC(=O)NC6=O)CC5)C4)cn3)c2)nn2c(C(=O)N[C@@H]3C[C@@H]3F)cnc12 (stereo partly drawn) [Example K510]	< 1	> 100	1 to 10
CNc1cc(Nc2ccccc2C(=O)NCCCCc2ccc3c(c2)n(C)c(=O)n3C2CCC(=O)NC2=O)nn2c(C(=O)N[C@@H]3C[C@@H]3F)cnc12 (stereo partly drawn) [Example K252]	> 100	> 100	> 100
CNc1cc(Nc2cccc(CN3CCCC4(C3)CN(c3ncc(C#Cc5ccc6c(c5)n(C)c(=O)n6C5CCC(=O)NC5=O)cn3)C4)c2)nn2c(C(=O)NC3CC3)cnc12 (stereo not drawn) [Example K608]	1 to 10	> 100	> 100
CNc1cc(Nc2cccc(N3CCC(CN4CCN(c5ccc(-c6ccc7c(c6)n(C)c(=O)n7C6CCC(=O)NC6=O)cc5)CC4)CC3)c2)nn2c(C(=O)N[C@@H]3C[C@@H]3F)cnc12 (stereo partly drawn) [Example K518]	< 1	> 100	> 100
Cc1cc(C)cc(Nc2cc(NCCCCCCc3ccc4c(c3)n(C)c(=O)n4C3CCC(=O)NC3=O)c3ncc(C(=O)N[C@@H]4C[C@@H]4F)n3n2)c1 (stereo partly drawn) [Example K401]	> 100	> 100	> 100
Cn1c(=O)n(C2CCC(=O)NC2=O)c2ccc(-c3ccc(N4CCN(Cc5ccc(-c6cccc(Nc7cc(C8CC8)c8ncc(C(=O)N[C@@H]9C[C@@H]9F)n8n7)c6)nc5)CC4)cc3)cc21 (stereo partly drawn) [Example K484]	> 100	> 100	> 100
CNC(=O)c1cnc(Nc2ccc(CN3CCC(N(C)c4ccc5c(c4)n(C)c(=O)n5C4CCC(=O)NC4=O)CC3)cn2)cc1Nc1cccc(-c2ncc(F)cn2)c1OC (stereo not drawn) [Example K175]	> 100	< 1	< 1
CNc1cc(Nc2cccn(-c3ccc(C(=O)N4CCC5(CCCN(CCc6ccc7c(c6)n(C)c(=O)n7C6CCC(=O)NC6=O)C5)C4)cn3)c2=O)nn2c(C(=O)N[C@@H]3C[C@@H]3F)cnc12 (stereo partly drawn) [Example K426]	> 100	> 100	> 100
CNC(=O)c1cnc(NC(=O)NCCCCCCCc2ccc3c(c2)n(C)c(=O)n3C2CCC(=O)NC2=O)cc1Nc1cccc(-c2ncc(F)cn2)c1OC (stereo not drawn) [Example K188]	> 100	< 1	> 100
CNc1cc(N2CCc3c(CN4CCC(CN5CCN(c6ccc7c(c6)n(C)c(=O)n7C6CCC(=O)NC6=O)CC5)CC4)cccc32)nn2c(C(=O)N[C@@H]3C[C@@H]3F)cnc12 (stereo partly drawn) [Example K634]	< 1	> 100	> 100
CNc1cc(Nc2cccc(CN3CCC4(CC3)CC(Cc3ccc5c(c3)n(C)c(=O)n5C3CCC(=O)NC3=O)C4)c2)nn2c(C(=O)NC3CC3)cnc12 (stereo not drawn) [Example K584]	> 100	> 100	> 100
CNc1cc(Nc2cccc(-c3ccc(CN4CCN(C5CCN(c6ccc7c(c6)n(C)c(=O)n7C6CCC(=O)NC6=O)CC5)CC4)cn3)c2)nn2c(C(=O)N[C@@H]3C[C@@H]3F)cnc12 (stereo partly drawn) [Example K435]	< 1	> 100	> 100

Structure (SMILES)	DC50 (TYK2 [1]) [nM]	DC50 (TYK2 [2]) [nM]	DC50 (TYK2 [3]) [nM]
CCNC(=O)c1cnc(Nc2cc(C(=O)NCCCCc3cccc4c3n(C)c(=O)n4C3CCC(=O)NC3=O)ccn2)cc1Nc1cccc(-c2ncc(F)cn2)c1OC (stereo not drawn) [Example K181]	> 100	1 to 10	> 100
CNc1cc(Nc2cccc(CN3CCC(CN4CCN(c5ccc6c(c5)n(C)c(=O)n6C5CCC(=O)NC5=O)CC4)CC3)c2)nn2c(C(=O)N[C@@H]3C[C@@H]3F)cnc12 (stereo partly drawn) [Example K490]	< 1	> 100	> 100
CNc1cc(N2CCc3c(-c4cc(N5CCN([C@H]6CC[C@H](c7ccc8c(c7)n(C)c(=O)n8C7CCC(=O)NC7=O)CC6)CC5)ccn4)cccc32)nn2c(C(=O)NC3CC3F)cnc12 (stereo partly drawn) [Example K650, N-[(1R,2S)-2-fluorocyclopropyl]-8-(methylamino)-6-[4-(4-{4-[(1r,4r)-4-[1-(2,6-dioxopiperidin-3-yl)-3-methyl-2-oxo-1,3-benzodiazol-5-yl]cyclohexyl]piperazin-1-yl}pyridin-2-yl)-2,3-dihydroindol-1-yl]imidazo[1,2-b]pyridazine-3-carboxamide]	< 1	> 100	> 100
CNc1cc(Nc2cccn(-c3ccc(C(=O)NCCOCCOCCc4cccc5c4n(C)c(=O)n5C4CCC(=O)NC4=O)cn3)c2=O)nn2c(C(=O)N[C@@H]3C[C@@H]3F)cnc12 (stereo partly drawn) [Example K216]	> 100	1 to 10	> 100
CNc1cc(Nc2cccn(-c3ccc(C(=O)NCCOCCOCCOCCOCCc4cccc5c4n(C)c(=O)n5C4CCC(=O)NC4=O)cn3)c2=O)nn2c(C(=O)N[C@@H]3C[C@@H]3F)cnc12 (stereo partly drawn) [Example K218]	> 100	10 to 100	> 100
CNc1cc(Nc2cccn(-c3ccc(C(=O)N4CC(N5CCN(CCc6ccc7c(c6)n(C)c(=O)n7C6CCC(=O)NC6=O)CC5)C4)cn3)c2=O)nn2c(C(=O)N[C@@H]3C[C@@H]3F)cnc12 (stereo partly drawn) [Example K429]	< 1	> 100	1 to 10
CNc1cc(N2CCc3c(-c4ccc(CN5CCC6(CC5)CCN(c5ccc7c(c5)n(C)c(=O)n7C5CCC(=O)NC5=O)CC6)cn4)cccc32)nn2c(C(=O)N[C@@H]3C[C@@H]3F)cnc12 (mixture of isomers) [Example K544]	< 1	> 100	> 100
CNC(=O)c1cnc(Nc2cc(C(=O)NCCCCCCCCc3ccc4c(c3)n(C)c(=O)n4C3CCC(=O)NC3=O)ccn2)cc1Nc1cccc(-c2ncc(F)cn2)c1OC (stereo not drawn) [Example K129]	> 100	< 1	1 to 10
CNc1cc(Nc2cccn(-c3ccc(C(=O)NCCCCc4ccc5c(c4)n(C)c(=O)n5C4CCC(=O)NC4=O)cn3)c2=O)nn2c(C(N)=O)cnc12 (stereo not drawn) [Example K320]	> 100	> 100	> 100
CNc1cc(Nc2cccn(-c3cc(C(=O)NCCOCCOCCOCCOCCOCCOCCc4ccc5c(c4)n(C)c(=O)n5C4CCC(=O)NC4=O)ccn3)c2=O)nn2c(C(=O)N[C@@H]3C[C@@H]3F)cnc12 (stereo partly drawn) [Example K245]	> 100	> 100	> 100
CNc1cc(Nc2cccc(CN3CCN(CCc4ccc5c(c4)n(C)c(=O)n5C4CCC(=O)NC4=O)CC3)c2)nn2c(C(=O)NC3CC3)cnc12 (stereo not drawn) [Example K613]	1 to 10	> 100	> 100
CNC(=O)c1cnc(NC(=O)NCCCCCCCCCc2cccc3c2n(C)c(=O)n3C2CCC(=O)NC2=O)cc1Nc1cccc(-c2ncc(F)cn2)c1OC (stereo not drawn) [Example K183]	> 100	1 to 10	> 100
CNc1cc(Nc2cccc(CN3CCC(c4ncc(-c5ccc6c(c5)n(C)c(=O)n6C5CCC(=O)NC5=O)cn4)CC3)c2)nn2c(C(=O)NC3CC3)cnc12 (stereo not drawn) [Example K585]	1 to 10	> 100	> 100
CNC(=O)c1cnc(Nc2ccc(C(=O)NCCOCCOCCOCCOCCc3ccc4c(c3)n(C)c(=O)n4C3CCC(=O)NC3=O)cn2)cc1Nc1cccc(-c2ncc(F)cn2)c1OC (stereo not drawn) [Example K113]	> 100	1 to 10	> 100
Cn1c(=O)n(C2CCC(=O)NC2=O)c2ccc(N3CCN(Cc4ccc(-c5cccc(Nc6ccc7ncc(C(=O)NC8CC8)n7n6)c5)nc4)CC3)cc21 (stereo not drawn) [Example K406]	> 100	> 100	> 100
CNC(=O)c1cnc(Nc2ccc(C(=O)NCCCCCCc3cccc4c3n(C)c(=O)n4C3CCC(=O)NC3=O)cn2)cc1Nc1cccc(-c2ncc(F)cn2)c1OC (stereo not drawn) [Example K115]	> 100	< 1	< 1
CNc1cc(Nc2cccn(-c3ccc(C(=O)N4CCC(CN(C)C5CCN(c6ccc7c(c6)n(C)c(=O)n7C6CCC(=O)NC6=O)CC5)C4)cn3)c2=O)nn2c(C(=O)N[C@@H]3C[C@@H]3F)cnc12 (stereo partly drawn) [Example K445]	< 1	> 100	> 100
